According to BindingDB's records for doi:10.1021/jm801643b (Vanderbilt University, 2009):
pKd: −log10 of the molar value.

Molecular target: Sterol 14-alpha demethylase (Trypanosoma cruzi (strain CL Brener), UniProt Q7Z1V1)
Assay: Spectral Titration of TCCYP51
Details: pH 7.4; 24 °C
Method: As a cysteine-coordinated hemoprotein, sterol 14-alpha-demethylase responds spectrally to any perturbations in the area surrounding the heme iron. These spectral responses can be used to estimate the apparent dissociation constants (Kd) of the enzyme/ligand complexes. […] The tested compounds were added in 1 ul aliquots to the test cuvette until the maximum in spectral response was reached. Equal volumes of DMSO were added to the reference cuvette. The apparent Kd values were determined from the equilibrium titration curves by plotting absorbance changes against the concentration of free ligand and fitting the data to a rectangular hyperbola using SigmaPlot Statistics.

Sequence of Sterol 14-alpha demethylase (Q7Z1V1 whole entry): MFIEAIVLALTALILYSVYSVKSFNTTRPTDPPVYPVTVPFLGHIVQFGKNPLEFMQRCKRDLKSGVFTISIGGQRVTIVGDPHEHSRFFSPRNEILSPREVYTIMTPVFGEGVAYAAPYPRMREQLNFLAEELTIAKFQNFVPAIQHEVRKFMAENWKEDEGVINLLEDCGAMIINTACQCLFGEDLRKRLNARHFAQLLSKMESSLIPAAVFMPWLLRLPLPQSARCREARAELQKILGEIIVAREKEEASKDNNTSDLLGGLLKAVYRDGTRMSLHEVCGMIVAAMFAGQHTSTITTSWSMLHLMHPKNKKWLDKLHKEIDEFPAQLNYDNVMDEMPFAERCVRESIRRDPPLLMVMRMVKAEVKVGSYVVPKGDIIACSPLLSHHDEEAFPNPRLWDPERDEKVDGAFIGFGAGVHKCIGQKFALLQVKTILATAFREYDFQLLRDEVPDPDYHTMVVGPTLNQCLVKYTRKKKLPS

Structure (SMILES) | pKd
COc1ccc2c(c1)c(CC(=O)Nc1cccnc1C)c(C)n2C(=O)c1ccc(Cl)cc1 [Indomethacin-amide derivative, 13] | 5.12
COc1ccc2c(c1)c(CC(=O)NCc1ccc(Cl)nc1)c(C)n2C(=O)c1ccc(Cl)cc1 [Indomethacin-amide derivative, 18] | 6.59
COc1ccc2c(c1)c(CC(=O)NCc1ccc(C(F)(F)F)nc1)c(C)n2C(=O)c1ccc(Cl)cc1 [Indomethacin-amide derivative, 19] | 6.25
